Laboratory results as given in patent US20090291941A1, “Tyrosine Kinase Inhibitors” (priority 2005, published 2009).

Target: T1, human c-Met (Homo sapiens, UniProt P08581)
T1 construct: Recombinant GST-tagged cytosolic domains of human c-Met; 6xHis; made in house; host or cells: baculovirus system; Sf9 or Sf21 insect cells
Experiment: In vitro c-Met kinase assay (homogeneous time-resolved fluorescence tyrosine kinase assay)
Type: biochemical
Settings: recombinant GST-tagged cytosolic domain of c-Met, 0.2 nM enzyme, 50 μM MgATP, HTRF readout
From the text: Recombinant GST-tagged cytosolic domains of human c-Met and other receptor tyrosine kinases including mouse c-Met, human Ron, KDR, IGFR, EGFR, FGFR, Mer, TrkA and Tie2 are used to determine whether the compounds of the instant invention modulate the enzymatic activities of these kinases.
Soluble recombinant GST-tagged cytosolic domains of c-Met and other receptor tyrosine kinases are expressed in a baculovirus system (Pharmingen) according to a protocol recommended by the manufacturer. The c-DNA encoding each cytosolic domain is subcloned into a baculovirus expression vector (pGcGHLT-A, B or C, Pharmingen) containing an in frame 6× histidine tag and a GST tag. […] The protein concentrations of the fusion proteins are determined using Coomassie Plus Protein Assay (Pierce) with BSA as standard.
The kinase activities of c-Met and other kinases are measured using a modified version of the homogeneous time-resolved tyrosine kinase assay described by Park et al. (1999, Anal. Biochem. 269:94-104).
The procedure for determining the potency of a compound to inhibit c-Met kinase comprises the following steps: • 1. […] Read HTRF signals on a Victor reader (PerkinElmer) in HTRF mode after 60 min. • 6. IC50 is determined by fitting the observed relationship between compound concentration and HTRF signal with a 4-parameter logistic equation. […]

T1 sequence (P08581 956-1390 limits assumed): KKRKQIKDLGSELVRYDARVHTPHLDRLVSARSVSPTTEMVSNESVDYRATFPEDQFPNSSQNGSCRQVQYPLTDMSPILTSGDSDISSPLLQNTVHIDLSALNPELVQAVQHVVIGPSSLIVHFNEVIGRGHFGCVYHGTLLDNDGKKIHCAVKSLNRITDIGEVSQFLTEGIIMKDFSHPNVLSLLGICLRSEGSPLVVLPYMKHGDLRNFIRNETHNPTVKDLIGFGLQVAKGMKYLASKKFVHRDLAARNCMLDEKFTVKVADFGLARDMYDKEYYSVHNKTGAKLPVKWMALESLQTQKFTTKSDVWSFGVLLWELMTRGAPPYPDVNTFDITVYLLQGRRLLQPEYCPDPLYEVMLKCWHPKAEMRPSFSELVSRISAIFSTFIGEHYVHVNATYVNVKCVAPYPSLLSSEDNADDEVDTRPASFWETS

Row | IC50 [µM] | Compound
1 | < 50 | Nc1ccc2c(c1)C(=O)Nc1cc(-c3ccccc3)cnc1C=C2 [Compound 14, 8-amino-3-phenylpyrido[3,2-c][2]benzazocin-6(5H)-one]
2 | < 50 | Nc1ccc2c(c1)NC(=O)c1cc(-c3ccccc3)cnc1C=C2 [Compound 15, 8-amino-3-phenylpyrido[3,2-c][1]benzazocin-5(6H)-one]
